Assay results taken from paper PMC8371902, “Phase 1 study of M2698, a p70S6K/AKT dual inhibitor, in patients with advanced cancer” (Journal of Hematology & Oncology, 2021).
Read-outs that look alike come from different tables or passages of the source.

Test system: patients with advanced metastatic cancer
Text: In this phase 1 study, dose escalation was followed by expansion cohorts of once-daily, oral M2698 in continuous 21-day cycles. Primary objectives were to determine the maximum tolerated dose (MTD), dose-limiting toxicities (DLTs), and recommended phase 2 dose (RP2D). Secondary objectives were to assess safety and tolerability, pharmacokinetics (PK, including food effect) and antitumor activity. Pharmacodynamic biomarker assessments were exploratory. Treatment was discontinued if there was disease progression, toxicity or consent withdrawal.
In Part 1, M2698 monotherapy was investigated in a dose escalation with a food effect cohort. In Part 2, M2698 was investigated as monotherapy (expansion cohort) to further characterize safety, tolerability and pharmacokinetics, and assess antitumor activity in PAM + patients without confounding markers (exploratory).
Dose escalation analysis included all patients who experienced a DLT and those who received ≥ 80% of planned M2698 doses in cycle 1 without experiencing a DLT. Safety analysis included all patients who received ≥ 1 dose of M2698. PK analysis included all patients who received ≥ 1 dose of M2698 and had measurable plasma concentrations. Dose proportionality was tested using the power model (linear regression approach on the log -transformed scale).

NC(=O)c1cccc2c(N[C@H](CN3CCC3)c3ccc(Cl)c(C(F)(F)F)c3)ncnc12 [M2698]
2: M2698-related TEAE: Abnormal dreams (240 mg n=17) | M2698-related TEAE: Diarrhoea (240 mg n=17)
3: M2698-related TEAE: Fatigue (240 mg n=17) | M2698-related TEAE: General disorders and administration site conditions (240 mg n=17) | M2698-related TEAE: Nausea (240 mg n=17) | M2698-related TEAE: Nervous system disorders (240 mg n=17)
1: M2698-related TEAE: Gastrointestinal disorders (200 mg n=3) | M2698-related TEAE: Metabolism and nutrition disorders (200 mg n=3) | M2698-related TEAE: Nausea (200 mg n=3) | M2698-related TEAE: Subjects with at least one event (200 mg n=3) | M2698-related TEAE: Blood creatinine increased (240 mg n=17) | M2698-related TEAE: Cognitive disorder (240 mg n=17) | M2698-related TEAE: Depression (240 mg n=17) | M2698-related TEAE: Dizziness (240 mg n=17) | M2698-related TEAE: Gastrooesophageal reflux disease (240 mg n=17) | M2698-related TEAE: Headache (240 mg n=17) | M2698-related TEAE: Investigations (240 mg n=17)
0: M2698-related TEAE: Delusion (200 mg n=3) | M2698-related TEAE: Depression (200 mg n=3) | M2698-related TEAE: Diarrhoea (200 mg n=3) | M2698-related TEAE: Diarrhoea haemorrhagic (200 mg n=3) | M2698-related TEAE: Dizziness (200 mg n=3) | M2698-related TEAE: Dry eye (200 mg n=3) | M2698-related TEAE: Dry mouth (200 mg n=3) | M2698-related TEAE: Dysgeusia (200 mg n=3) | M2698-related TEAE: Dyspepsia (200 mg n=3) | M2698-related TEAE: Dysphagia (200 mg n=3) | M2698-related TEAE: Energy increased (200 mg n=3) | M2698-related TEAE: Erythema (200 mg n=3) | M2698-related TEAE: Euphoric mood (200 mg n=3) | M2698-related TEAE: Eye disorders (200 mg n=3) | M2698-related TEAE: Fatigue (200 mg n=3) | M2698-related TEAE: Gamma-glutamyltransferase increased (200 mg n=3) | M2698-related TEAE: Gastrooesophageal reflux disease (200 mg n=3) | M2698-related TEAE: General disorders and administration site conditions (200 mg n=3) | M2698-related TEAE: Headache (200 mg n=3) | M2698-related TEAE: Hyperhidrosis (200 mg n=3) | M2698-related TEAE: Hypokalaemia (200 mg n=3) | M2698-related TEAE: Hypomagnesaemia (200 mg n=3) | M2698-related TEAE: Insomnia (200 mg n=3) | M2698-related TEAE: Investigations (200 mg n=3) | M2698-related TEAE: Lipase increased (200 mg n=3) | M2698-related TEAE: Lymphopenia (200 mg n=3) | M2698-related TEAE: Mucosal inflammation (200 mg n=3) | M2698-related TEAE: Nervous system disorders (200 mg n=3) | M2698-related TEAE: Nightmare (200 mg n=3) | M2698-related TEAE: Onychomadesis (200 mg n=3) | M2698-related TEAE: Paranoia (200 mg n=3) | M2698-related TEAE: Photosensitivity reaction (200 mg n=3) | M2698-related TEAE: Posterior reversible encephalopathy syndrome (200 mg n=3) | M2698-related TEAE: Pruritus generalised (200 mg n=3) | M2698-related TEAE: Psychiatric disorders (200 mg n=3) | M2698-related TEAE: Rash (200 mg n=3) | M2698-related TEAE: Rash maculo-papular (200 mg n=3) | M2698-related TEAE: Skin and subcutaneous tissue disorders (200 mg n=3) | M2698-related TEAE: Transaminases increased (200 mg n=3) | M2698-related TEAE: Tremor (200 mg n=3) | M2698-related TEAE: Vision blurred (200 mg n=3) | M2698-related TEAE: Vomiting (200 mg n=3) | M2698-related TEAE: White blood cell count decreased (200 mg n=3) | M2698-related TEAE: Affect lability (240 mg n=17) | M2698-related TEAE: Alanine aminotransferase increased (240 mg n=17) | M2698-related TEAE: Amylase increased (240 mg n=17) | M2698-related TEAE: Anaemia (240 mg n=17) | M2698-related TEAE: Angina pectoris (240 mg n=17) | M2698-related TEAE: Anxiety (240 mg n=17) | M2698-related TEAE: Aphasia (240 mg n=17) | M2698-related TEAE: Ataxia (240 mg n=17) | M2698-related TEAE: Blood and lymphatic system disorders (240 mg n=17) | M2698-related TEAE: Blood creatine phosphokinase increased (240 mg n=17) | M2698-related TEAE: Cardiac disorders (240 mg n=17) | M2698-related TEAE: Constipation (240 mg n=17) | M2698-related TEAE: Decreased appetite (240 mg n=17) | M2698-related TEAE: Delusion (240 mg n=17) | M2698-related TEAE: Diarrhoea haemorrhagic (240 mg n=17) | M2698-related TEAE: Dry eye (240 mg n=17) | M2698-related TEAE: Dry mouth (240 mg n=17) | M2698-related TEAE: Dysgeusia (240 mg n=17) | M2698-related TEAE: Dyspepsia (240 mg n=17) | M2698-related TEAE: Dysphagia (240 mg n=17) | M2698-related TEAE: Energy increased (240 mg n=17) | M2698-related TEAE: Erythema (240 mg n=17) | M2698-related TEAE: Euphoric mood (240 mg n=17) | M2698-related TEAE: Eye disorders (240 mg n=17) | M2698-related TEAE: Gamma-glutamyltransferase increased (240 mg n=17) | M2698-related TEAE: Hyperhidrosis (240 mg n=17) | M2698-related TEAE: Hypokalaemia (240 mg n=17) | M2698-related TEAE: Hypomagnesaemia (240 mg n=17) | M2698-related TEAE: Insomnia (240 mg n=17) | M2698-related TEAE: Lipase increased (240 mg n=17) | M2698-related TEAE: Lymphopenia (240 mg n=17) | M2698-related TEAE: Metabolism and nutrition disorders (240 mg n=17) | M2698-related TEAE: Mucosal inflammation (240 mg n=17) | M2698-related TEAE: Nightmare (240 mg n=17) | M2698-related TEAE: Onychomadesis (240 mg n=17) | M2698-related TEAE: Paranoia (240 mg n=17) | M2698-related TEAE: Photosensitivity reaction (240 mg n=17) | M2698-related TEAE: Posterior reversible encephalopathy syndrome (240 mg n=17)
4: M2698-related TEAE: Gastrointestinal disorders (240 mg n=17)
